From ChEMBL document CHEMBL1136095, “Pyrazole-O-glucosides as novel Na(+)-glucose cotransporter (SGLT) inhibitors” (2003)
Activity calls are given as the source filed them. The calls are words filed in the database; no cut-off is given here.

How the values were obtained:
Rattus norvegicus [1] = test: Urinary glucose excretion in Wistar rat after intravenous administration (3 mg/kg); type: functional, Urine
Rattus norvegicus [2] = species on record: Rattus norvegicus; test: Na+ -glucose co-transporter (SGLT) inhibitory activity against [C14]-glucose transport in BBMV's of rat kidney at compound concentration of 100 uM: Not active; type: functional
Rattus norvegicus [3] = species on record: Rattus norvegicus; test: Na+ -glucose co-transporter (SGLT) inhibitory activity against [C14]-glucose transport in BBMV's of rat kidney at compound concentration of 10 uM
Rattus norvegicus [4] = species on record: Rattus norvegicus; test: Na+ -glucose co-transporter (SGLT) inhibitory activity against [C14]-glucose transport in BBMV's of rat kidney at compound concentration of 100 uM; type: functional

Row | Structure (SMILES) | Glucose (Rattus norvegicus [1]) | inhibition (Rattus norvegicus [2]) | Inhibition (Rattus norvegicus [3]) | Inhibition (Rattus norvegicus [4])
1 | CSc1ccc(Cc2c(C(F)(F)F)n[nH]c2O)cc1 | 0 mg/day | inactive | – | –
2 | CCc1ccc(Cc2c(C(F)(F)F)n[nH]c2O[C@@H]2O[C@H](CO)[C@@H](O)[C@H](O)[C@H]2O)cc1 | 63 mg/day | – | 84% | –
3 | CCc1ccc(Cc2c(C(F)(F)F)n[nH]c2O[C@@H]2O[C@H](C(=O)O)[C@@H](O)[C@H](O)[C@H]2O)cc1 | 2.6 mg/day | – | – | 30%
